Results on 20 compounds are retold here after patent US20240116947A1, “PYRIDO OXAZINE DERIVATIVES AS ALK5 INHIBITORS” (CHIESI FARMACEUTICI S.P.A., priority 2020, published 2024).

Where only a bound is given, the exact number is not on record here.

The target in the experiment is human ALK5 (Homo sapiens (Human), UniProt P36897). Nature of the experiment: ADP-GLO Kinases assay, inhibition of ALK5 enzymatic activity. In kind it is biochemical. The note with it: Table 4; potency bins; purified recombinant human ALK5, ADP-Glo, 25° C.; read-out: ALK5 IC50. Here is the method: The enzymatic activity of compounds of the present invention was monitored measuring the formation of ADP using the ADP-GLO Kinases assay. Following the incubation of the purified enzyme, a substrate and ATP, the produced ADP was converted into ATP, which in turn was converted into light by Ultra-Glo Luciferase. The luminescent signal positively correlated with ADP amount and kinase activity. Briefly, the kinase reaction was performed by incubating 2.6 nM of the purified, commercially available human ALK5 (recombinant TGF β1 N-term GST-tagged, 80-end), a final concentration of TGFβ1 peptide 94.5 μM (Promega, T36-58) and ultra-pure ATP (Promega V915B). […] All reactions/incubations were performed at 25° C. Compound and ALK5 kinase were mixed and incubated for 15 mins. Reactions were initiated by addition of ATP at a final concentration in the assay of 0.83 μM. After an incubation of 150 min, the reaction was stopped, and ADP production detected with ADP-Glo kit according to manufacturer's indications. The assay was performed in 384-well format and was validated using a selection of reference compounds that was tested in 11 point concentration-response curve.
Sequence of human ALK5 (P36897 80-503 limits assumed): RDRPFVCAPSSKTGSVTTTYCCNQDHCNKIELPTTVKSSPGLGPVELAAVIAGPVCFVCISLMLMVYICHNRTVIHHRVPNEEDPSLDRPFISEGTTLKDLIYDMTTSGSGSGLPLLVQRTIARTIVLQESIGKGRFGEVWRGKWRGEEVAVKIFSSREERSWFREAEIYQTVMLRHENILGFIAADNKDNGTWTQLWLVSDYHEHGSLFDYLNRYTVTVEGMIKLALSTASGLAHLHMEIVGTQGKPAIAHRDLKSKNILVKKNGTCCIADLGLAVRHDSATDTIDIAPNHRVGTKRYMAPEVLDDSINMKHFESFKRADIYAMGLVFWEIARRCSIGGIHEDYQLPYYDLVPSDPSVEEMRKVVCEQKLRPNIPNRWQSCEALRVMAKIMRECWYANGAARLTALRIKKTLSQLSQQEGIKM
Regarding `CC(C)c1ccc(F)c(-c2cc3c(cn2)OCCN3c2ccnc(NC(=O)CCN3CCN(C)CC3)c2)c1` [Example 34, N-(4-{7-[2-fluoro-5-(propan-2-yl)phenyl]-1H,2H,3H-pyrido[3,4-b][1,4]oxazin-1-yl}pyridin-2-yl)-3-(4-methylpiperazin-1-yl)propanamide], the IC50 was below 1 nM. `O=C(CCN1CCN(CCC(=O)Nc2cc(N3CCOc4cnc(-c5cc(Cl)ccc5F)cc43)ccn2)CC1)NCCO` [Example 35, 3-{4-[2-({4-[7-(5-chloro-2-fluorophenyl)-1H,2H,3H-pyrido[3,4-b][1,4]oxazin-1-yl]pyridin-2-yl}carbamoyl)ethyl]piperazin-1-yl}-N-(2-hydroxyethyl)propanamide]: the IC50 was below 1 nM. `O=C(CCN1CCN(CCN(CCO)CCO)CC1)Nc1cc(N2CCOc3cnc(-c4cc(Cl)ccc4F)cc32)ccn1` [Example 36, 3-(4-{2-[bis(2-hydroxyethyl)amino]ethyl}piperazin-1-yl)-N-{4-[7-(5-chloro-2-fluorophenyl)-1H,2H,3H-pyrido[3,4-b][1,4]oxazin-1-yl]pyridin-2-yl}propanamide]: the IC50 is below 1 nM. For the compound `NC(=O)CCN1CCN(CCC(=O)Nc2cc(N3CCOc4cnc(-c5cc(Cl)ccc5F)cc43)ccn2)CC1` [Example 37, 3-[4-(2-carbamoylethyl)piperazin-1-yl]-N-{4-[7-(5-chloro-2-fluorophenyl)-1H,2H,3H-pyrido[3,4-b][1,4]oxazin-1-yl]pyridin-2-yl}propanamide], the half-maximal inhibitory concentration (IC50) is below 1 nM. As to `CN1CCN(CCC(=O)Nc2cc(N3CCOc4cnc(-c5nc(Cl)ccc5F)cc43)ccn2)CC1` [Example 38, N-{4-[7-(6-chloro-3-fluoropyridin-2-yl)-1H,2H,3H-pyrido[3,4-b][1,4]oxazin-1-yl]pyridin-2-yl}-3-(4-methylpiperazin-1-yl)propanamide], the IC50 was below 1 nM. With `CN1CCC(CCC(=O)Nc2cc(N3CCOc4cnc(-c5nc(Cl)ccc5F)cc43)ccn2)CC1` [Example 39, N-{4-[7-(6-chloro-3-fluoropyridin-2-yl)-1H,2H,3H-pyrido[3,4-b][1,4]oxazin-1-yl]pyridin-2-yl}-3-(1-methylpiperidin-4-yl)propanamide], the IC50 is below 1 nM. Turning to `COCCC(=O)Nc1cc(N2CCOc3cnc(-c4cc(Cl)ccc4F)cc32)ccn1` [Example 40, N-{4-[7-(5-chloro-2-fluorophenyl)-1H,2H,3H-pyrido[3,4-b][1,4]oxazin-1-yl]pyridin-2-yl}-3-methoxypropanamide], the IC50 lay within 5 to 10 nM. In the case of `CN1CCC(CCC(=O)Nc2cc(N3CCOc4cnc(-c5cc(Cl)ncc5F)cc43)ccn2)CC1` [Example 41, N-{4-[7-(2-chloro-5-fluoropyridin-4-yl)-1H,2H,3H-pyrido[3,4-b][1,4]oxazin-1-yl]pyridin-2-yl}-3-(1-methylpiperidin-4-yl)propanamide], the IC50 was below 1 nM. For `CN1CCN(CCC(=O)Nc2cc(N3CCOc4cnc(-c5cc(Cl)ncc5F)cc43)ccn2)CC1` [Example 42, N-{4-[7-(2-chloro-5-fluoropyridin-4-yl)-1H,2H,3H-pyrido[3,4-b][1,4]oxazin-1-yl]pyridin-2-yl}-3-(4-methylpiperazin-1-yl)propanamide], the IC50 was below 1 nM. Regarding `CN1CCN(CC(=O)Nc2cc(N3CCOc4cnc(-c5cc(Cl)ccc5F)cc43)ccn2)CC1` [Example 43, N-{4-[7-(5-chloro-2-fluorophenyl)-1H,2H,3H-pyrido[3,4-b][1,4]oxazin-1-yl]pyridin-2-yl}-2-(4-methylpiperazin-1-yl)acetamide], the IC50 was below 1 nM.

Consider `CN1CCN(CCC(=O)Nc2cc(N3CCOc4c3cc(-c3cc(Cl)ccc3F)nc4C(=O)O)ccn2)CC1` [Example 44, 7-(5-chloro-2-fluorophenyl)-1-{2-[3-(4-methylpiperazin-1-yl)propanamido]pyridin-4-yl}-1H,2H,3H-pyrido[3,4-b][1,4]oxazine-5-carboxylic acid], for which the IC50 lay within 1 to 5 nM. With `COC(=O)C1CN(CCC(=O)Nc2cc(N3CCOc4cnc(-c5cc(Cl)ccc5F)cc43)ccn2)CCN1C` (centres unmarked) [Example 45, Methyl 4-[2-({4-[7-(5-chloro-2-fluorophenyl)-1H,2H,3H-pyrido[3,4-b][1,4]oxazin-1-yl]pyridin-2-yl}carbamoyl)ethyl]-1-methylpiperazine-2-carboxylate], the half-maximal inhibitory concentration (IC50) is below 1 nM.

As for `COC(=O)C1CN(CCC(=O)Nc2cc(N3CCOc4cnc(-c5cc(Cl)ccc5F)cc43)ccn2)CCN1` (centres unmarked) [Example 46, Methyl 4-[2-({4-[7-(5-chloro-2-fluorophenyl)-1H,2H,3H-pyrido[3,4-b][1,4]oxazin-1-yl]pyridin-2-yl}carbamoyl)ethyl]piperazine-2-carboxylate], the IC50 was below 1 nM. The value for `COC(=O)CC1CN(CCC(=O)Nc2cc(N3CCOc4cnc(-c5cc(Cl)ccc5F)cc43)ccn2)CCN1C` (centres unmarked) [Example 47, Methyl 2-{4-[2-({4-[7-(5-chloro-2-fluorophenyl)-1H,2H,3H-pyrido[3,4-b][1,4]oxazin-1-yl]pyridin-2-yl}carbamoyl)ethyl]-1-methylpiperazin-2-yl}acetate] was below 1 nM.

Take `COC(=O)CC1CN(CCC(=O)Nc2cc(N3CCOc4cnc(-c5cc(Cl)ccc5F)cc43)ccn2)CCN1` (centres unmarked) [Example 48, Methyl 2-{4-[2-({4-[7-(5-chloro-2-fluorophenyl)-1H,2H,3H-pyrido[3,4-b][1,4]oxazin-1-yl]pyridin-2-yl}carbamoyl)ethyl]piperazin-2-yl}acetate]: the IC50 is below 1 nM. Regarding `COC(=O)C1CN(C)CCN1CCC(=O)Nc1cc(N2CCOc3cnc(-c4cc(Cl)ccc4F)cc32)ccn1` (centres unmarked) [Example 49, Methyl 1-[2-({4-[7-(5-chloro-2-fluorophenyl)-1H,2H,3H-pyrido[3,4-b][1,4]oxazin-1-yl]pyridin-2-yl}carbamoyl)ethyl]-4-methylpiperazine-2-carboxylate], the IC50 is below 1 nM. As for `COC(=O)CC1CN(C)CCN1CCC(=O)Nc1cc(N2CCOc3cnc(-c4cc(Cl)ccc4F)cc32)ccn1` (centres unmarked) [Example 50, Methyl 2-{1-[2-({4-[7-(5-chloro-2-fluorophenyl)-1H,2H,3H-pyrido[3,4-b][1,4]oxazin-1-yl]pyridin-2-yl}carbamoyl)ethyl]-4-methylpiperazin-2-yl}acetate], the IC50 is below 1 nM. In the case of `CN1CCN(CCC(=O)Nc2cc(N3CCOc4c3cc(-c3cc(Cl)ccc3F)nc4N)ccn2)CC1` [Example 51, N-{4-[5-amino-7-(5-chloro-2-fluorophenyl)-1H,2H,3H-pyrido[3,4-b][1,4]oxazin-1-yl]pyridin-2-yl}-3-(4-methylpiperazin-1-yl)propanamide], the 50% inhibitory concentration (IC50) was below 1 nM. As for `CN1CC2CC1CN2CC(=O)Nc1cc(N2CCOc3cnc(-c4cc(Cl)ccc4F)cc32)ccn1` (centres unmarked) [Example 52, N-{4-[7-(5-chloro-2-fluorophenyl)-1H,2H,3H-pyrido[3,4-b][1,4]oxazin-1-yl]pyridin-2-yl}-2-{5-methyl-2,5-diazabicyclo[2.2.1]heptan-2-yl}acetamide], the IC50 is below 1 nM. On to `CN1CC2(C1)CN(CC(=O)Nc1cc(N3CCOc4cnc(-c5cc(Cl)ccc5F)cc43)ccn1)C2` [Example 53, N-{4-[7-(5-chloro-2-fluorophenyl)-1H,2H,3H-pyrido[3,4-b][1,4]oxazin-1-yl]pyridin-2-yl}-2-{6-methyl-2,6-diazaspiro[3.3]heptan-2-yl}acetamide], for which the IC50 is below 1 nM.
